The values below come from patent US8470525B2, “Method for analyzing air” (priority 2011, dated 2013).

What all share (type): biochemical
Experiment [1] can be described thus: Air monitoring device: detection of aerosolized enzyme protein by fluorescence from indoxyl acetate substrate. To be noted: Example 6, FIG. 10: enzyme solution 3 mg/ml aerosolized; 3 minute cycles; cycles four, five and six; clean air amplitude 0. Here is the method:
Example 6 provides a method of this invention for the detection of a protein in the air. The device in this example was operated continuously in 3 minute cycles. Each cycle consists of a 30 second sampling period at a flow rate of 1 liter per minute, a 5 second substrate addition step, a 85 second reading period and a 60 second rinse step. The consumables/reagents consisted of a) 12.5 mg/ml indoxyl acetate substrate solution in isopropyl alcohol (IPA), diluted in buffer 100 fold and b) 100 mM buffer at pH 7.0. This example used a polyethylene disk with a pore size of 15-45 um and a thickness of 1.6 mm as the impactor disk. The substrate aerosol was generated using 5×500 ms pulses every second for 5 seconds total. The rinse step at conclusion of the cycle was accomplished by continuously aerosolizing buffer for about 60 seconds.
Specifically, acetylcholinesterase enzyme solution was aerosolized into a plastic test chamber at a concentration of 3 mg/ml. The sampled air was contaminated with enzyme two times at intervals indicated by solid triangles (beginning) and white triangles (end). As set forth in FIG. 10, the device indicated the presence of the target protein by an amplitude increase to at least 2,000 fluorescent units in cycles four, five and six compared to an amplitude of 0 in cycles one, two and three during the time clean air was sampled.

In experiment [2] the target is T1, acetylcholinesterase enzyme (Homo sapiens, UniProt P22303). The experiment in a line: Air monitoring device: detection of aerosolized enzymatic substrate by fluorescence after enzyme addition. As to conditions: Example 7, FIG. 11: indoxyl acetate solution 0.1 mg/ml aerosolized; 4 minute cycles; cycles three and four; clean air amplitude 500. Here is the method:
Example 7 provides a method of this invention to detect other chemicals in the air. The device in this example was operated continuously in 4 minute cycles. Each cycle consists of a 2 minute second sampling period at a flow rate of 1 liter per minute, 5 second enzyme addition step, a 85 second reading period and a 30 second rinse step. The consumables/reagents consisted of a) 3 mg/ml acetylcholinesterase enzyme solution in buffer and b) 100 mM buffer at pH 7.0. This example used a polyethylene disk with a pore size of 15-45 um and a thickness of 1.6 mm as the impactor disk. The enzyme aerosol was generated using 5×500 ms pulses every second for 5 seconds total. The rinse step at conclusion of the cycle was accomplished by continuously aerosolizing buffer for about 30 seconds.
Specifically, indoxyl acetate solution was aerosolized into a plastic test chamber at a concentration of 0.1 mg/ml. […] The device indicated the presence of the target protein by an amplitude increase to at least 3,000 fluorescent units in cycles three and four compared to an amplitude of 500 in cycles one and two during the time clean air was sampled.

In experiment [3] the target is T1, acetylcholinesterase enzyme. The experiment in a line: Enzyme-based air monitoring device: detection of cholinesterase inhibitor in air by loss of acetylcholinesterase/indoxyl acetate fluorescence signal. As to conditions: Example 4, FIG. 8: aerosol from 2.5 ppm paraoxon solution; 4 minute cycles; polyethylene disk 15-45 um; clean-air cycle around 14,000.
Experimental: In this embodiment of the invention, the device and method operates in repetitive cycles ranging from 30 seconds to 10 minutes. […] The cycle shown in FIG. 2 took 5 minutes for completion. The enzyme and substrate addition took 5 seconds, the sampling time took 115 seconds, the reading took 85 seconds and was concluded by the alarm status update at the end which requires only a fraction of a second, and the rinse took 90 seconds. Each cycle concludes with the rinse step where components of the reaction are rinsed off the surface of the collection matrix and preferably from the reaction zone and the surface of the collection matrix, in order to set the stage for a new sampling cycle.
FIGS. 3a and 3b illustrate the steps of one 5 minute cycle with no detection event in more detail. […] Particles, aerosols and vapor from the environment are collected on the impactor disk or surface of the collection matrix. During this step one nebulizer is activated adding aerosolized enzyme visualized in FIGS. 3a and 3b by clam shaped symbols. The enzyme is being accumulated on the impactor disk/surface of the collection matrix. […] During the next step 4) 85 seconds reading, the catalytic reaction of the enzyme substrate complex is monitored with an optical system. […] During the reading period, the air sampling pump is typically switched off. […]

T1 sequence (P22303 32-614, species assumed): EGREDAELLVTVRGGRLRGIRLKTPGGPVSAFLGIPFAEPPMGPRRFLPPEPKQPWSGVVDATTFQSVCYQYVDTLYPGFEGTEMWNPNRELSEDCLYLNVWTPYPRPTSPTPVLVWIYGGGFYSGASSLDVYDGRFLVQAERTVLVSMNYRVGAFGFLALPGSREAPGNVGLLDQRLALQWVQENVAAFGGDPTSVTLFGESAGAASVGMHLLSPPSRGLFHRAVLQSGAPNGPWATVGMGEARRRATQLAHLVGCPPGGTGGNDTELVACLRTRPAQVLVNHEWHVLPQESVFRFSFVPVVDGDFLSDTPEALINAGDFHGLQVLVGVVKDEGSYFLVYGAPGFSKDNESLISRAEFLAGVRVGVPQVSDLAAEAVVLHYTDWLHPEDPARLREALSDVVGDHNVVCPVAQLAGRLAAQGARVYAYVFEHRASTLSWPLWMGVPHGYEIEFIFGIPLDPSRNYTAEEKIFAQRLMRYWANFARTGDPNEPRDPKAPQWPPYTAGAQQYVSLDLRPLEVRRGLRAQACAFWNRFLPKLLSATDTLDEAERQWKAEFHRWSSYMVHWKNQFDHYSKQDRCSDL

Regarding acetylcholinesterase, in experiment [1], the amplitude increase entry was “at least 2,000 fluorescent units”. With indoxyl acetate, the amplitude increase result in experiment [2] is “at least 3,000 fluorescent units”. As to `CCOP(=O)(OCC)Oc1ccc([N+](=O)[O-])cc1` [paraoxon], the signal amplitude entry in experiment [3] is reported as “around 4,000 fluorescent units”.
